Legend:
[1] = target: T1, Transcriptional activator protein TraR (Agrobacterium tumefaciens, UniProt P33905); experiment: Inhibition of Agrobacterium tumefaciens TraR
T1 sequence (P33905 whole entry): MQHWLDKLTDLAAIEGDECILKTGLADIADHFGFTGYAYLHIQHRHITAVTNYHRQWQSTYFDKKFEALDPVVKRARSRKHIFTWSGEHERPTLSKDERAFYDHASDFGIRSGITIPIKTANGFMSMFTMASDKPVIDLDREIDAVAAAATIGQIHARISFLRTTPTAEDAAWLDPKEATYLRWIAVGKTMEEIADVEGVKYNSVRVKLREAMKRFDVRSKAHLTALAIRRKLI

[2] = target: T2, Transcriptional activator protein LasR (Pseudomonas aeruginosa (strain ATCC 15692 / PAO1 / 1C / PRS 101 / LMG12228), UniProt P25084); experiment: Inhibition of Pseudomonas aeruginosa LasR
T2 sequence (P25084 whole entry): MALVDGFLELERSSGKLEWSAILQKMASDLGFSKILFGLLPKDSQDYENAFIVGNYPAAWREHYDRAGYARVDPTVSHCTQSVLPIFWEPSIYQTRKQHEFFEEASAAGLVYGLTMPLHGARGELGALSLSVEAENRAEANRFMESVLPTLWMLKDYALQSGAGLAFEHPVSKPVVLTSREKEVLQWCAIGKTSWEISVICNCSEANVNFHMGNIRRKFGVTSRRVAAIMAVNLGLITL

Structure (SMILES)	IC50 [1] [µM]	IC50 [2] [µM]
O=C(CC(=O)N[C@H]1CCOC1=O)Cc1ccccc1	0.5	53.6
O=C(CCCc1c[nH]c2ccccc12)N[C@H]1CCOC1=O	1.1	14.8
O=C(CC1C=CCC1)N[C@H]1CCOC1=O (stereo partly drawn)	1	33.1
CCCCCCC(=O)N[C@H]1CCOC1=O	0.13	51.5
